Source: ChEMBL document CHEMBL2073982, “Bumetanide is not transported by the Ntcp or by the oatp: evidence for a third organic anion transporter in rat liver cells” (Biochim Biophys Acta, 1996)

Biological target: T1, Solute carrier organic anion transporter family member 1A1 (Rattus norvegicus, UniProt P46720)
T1 sequence (P46720 whole entry): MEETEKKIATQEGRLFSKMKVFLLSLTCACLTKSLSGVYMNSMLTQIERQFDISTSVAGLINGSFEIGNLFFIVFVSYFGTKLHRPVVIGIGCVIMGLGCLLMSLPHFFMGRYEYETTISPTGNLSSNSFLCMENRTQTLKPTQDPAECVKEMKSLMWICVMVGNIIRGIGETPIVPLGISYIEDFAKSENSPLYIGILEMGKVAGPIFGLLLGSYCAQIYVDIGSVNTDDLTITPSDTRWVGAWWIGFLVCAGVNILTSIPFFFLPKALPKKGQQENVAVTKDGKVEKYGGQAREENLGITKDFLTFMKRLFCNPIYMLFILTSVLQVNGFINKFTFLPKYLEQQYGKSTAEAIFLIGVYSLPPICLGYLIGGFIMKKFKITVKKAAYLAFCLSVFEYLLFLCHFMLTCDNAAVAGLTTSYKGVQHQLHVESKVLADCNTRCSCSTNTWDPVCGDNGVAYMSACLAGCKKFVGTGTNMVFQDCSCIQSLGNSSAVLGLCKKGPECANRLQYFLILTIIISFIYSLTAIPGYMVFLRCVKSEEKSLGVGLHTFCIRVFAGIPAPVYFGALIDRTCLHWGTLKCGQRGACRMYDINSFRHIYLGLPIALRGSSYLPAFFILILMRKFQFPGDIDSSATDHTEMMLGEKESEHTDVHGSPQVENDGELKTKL
Experiment: TP_TRANSPORTER: uptake in Xenopus laevis oocytes
Format: functional, cell-based
Details: oocyte

Activity: is not a substrate [-]
SMILES: CCCCNc1cc(C(=O)O)cc(S(N)(=O)=O)c1Oc1ccccc1 [BUMETANIDE]
